Test results published in US20160367623A1, “AGONISTS OF GUANYLATE CYCLASE USEFUL FOR THE TREATMENT OF GASTROINTESTINAL DISORDERS, INFLAMMATION, CANCER AND OTHER DISORDERS” (priority 2015, published 2016).
Bridge positions count the residues as written; N and C are the ends. Ends that are not written are not given here.

Tested on: patients with chronic idiopathic constipation (CIC)
Assay: Second phase 3 CIC trial: change from baseline in stool consistency (BSFS)
Format: in vivo, human
Conditions: 6 mg
[1] = Post-Treatment Week 14, ITT Population-Excluding Duplicate Patients
[2] = Week 1, All Randomized (includes Duplicate Patients)
[3] = Week 1, ITT Population-Excluding Duplicate Patients
[4] = Week 2, All Randomized (includes Duplicate Patients)
[5] = Week 2, ITT Population-Excluding Duplicate Patients
[6] = Week 3, All Randomized (includes Duplicate Patients)
[7] = Week 3, ITT Population-Excluding Duplicate Patients
[8] = Week 4, All Randomized (includes Duplicate Patients)
[9] = Week 4, ITT Population-Excluding Duplicate Patients
[10] = Week 5, All Randomized (includes Duplicate Patients)
[11] = Week 5, ITT Population-Excluding Duplicate Patients
[12] = Week 6, All Randomized (includes Duplicate Patients)
[13] = Week 6, ITT Population-Excluding Duplicate Patients
[14] = Week 7, All Randomized (includes Duplicate Patients)
[15] = Week 7, ITT Population-Excluding Duplicate Patients
[16] = Week 8, All Randomized (includes Duplicate Patients)
[17] = Week 8, ITT Population-Excluding Duplicate Patients

Substance: Asn^1-Asp^2-Glu^3-Cys^4-Glu^5-Leu^6-Cys^7-Val^8-Asn^9-Val^10-Ala^11-Cys^12-Thr^13-Gly^14-Cys^15-Leu^16 (NDECELCVNVACTGCL; disulfide 4-12, 7-15) [Plecanatide, uroguanylin analogue, guanylate cyclase-C agonist; (C4:C12, C7:C15) bicycle peptide]
- Change from Baseline in Stool Consistency, LS Mean (SE) [1]: 1.07 (0.074)
- Change from Baseline in Stool Consistency, Mean (SD) [1]: 1.05 (1.358)
- Change from Baseline in Stool Consistency, Difference from Placebo [2]: 0.84
- Change from Baseline in Stool Consistency, LS Mean (SE) [2]: 1.41 (0.071)
- Change from Baseline in Stool Consistency, Mean (SD) [2]: 1.43 (1.501)
- Change from Baseline in Stool Consistency, Difference from Placebo (Week 1, ITT Population): 0.84
- Change from Baseline in Stool Consistency, LS Mean (SE) (Week 1, ITT Population): 1.44 (0.073)
- Change from Baseline in Stool Consistency, Mean (SD) (Week 1, ITT Population): 1.45 (1.501)
- Change from Baseline in Stool Consistency, Difference from Placebo [3]: 0.86
- Change from Baseline in Stool Consistency, LS Mean (SE) [3]: 1.47 (0.073)
- Change from Baseline in Stool Consistency, Mean (SD) [3]: 1.47 (1.495)
- Change from Baseline in Stool Consistency, Difference from Placebo [4]: 0.67
- Change from Baseline in Stool Consistency, LS Mean (SE) [4]: 1.36 (0.071)
- Change from Baseline in Stool Consistency, Mean (SD) [4]: 1.36 (1.560)
- Change from Baseline in Stool Consistency, Difference from Placebo (Week 2, ITT Population): 0.68
- Change from Baseline in Stool Consistency, LS Mean (SE) (Week 2, ITT Population): 1.39 (0.073)
- Change from Baseline in Stool Consistency, Mean (SD) (Week 2, ITT Population): 1.38 (1.560)
- Change from Baseline in Stool Consistency, Difference from Placebo [5]: 0.68
- Change from Baseline in Stool Consistency, LS Mean (SE) [5]: 1.41 (0.074)
- Change from Baseline in Stool Consistency, Mean (SD) [5]: 1.39 (1.562)
- Change from Baseline in Stool Consistency, Difference from Placebo [6]: 0.53
- Change from Baseline in Stool Consistency, LS Mean (SE) [6]: 1.41 (0.072)
- Change from Baseline in Stool Consistency, Mean (SD) [6]: 1.44 (1.479)
- Change from Baseline in Stool Consistency, Difference from Placebo (Week 3, ITT Population): 0.54
- Change from Baseline in Stool Consistency, LS Mean (SE) (Week 3, ITT Population): 1.44 (0.074)
- Change from Baseline in Stool Consistency, Mean (SD) (Week 3, ITT Population): 1.46 (1.480)
- Change from Baseline in Stool Consistency, Difference from Placebo [7]: 0.55
- Change from Baseline in Stool Consistency, LS Mean (SE) [7]: 1.46 (0.074)
- Change from Baseline in Stool Consistency, Mean (SD) [7]: 1.47 (1.485)
- Change from Baseline in Stool Consistency, Difference from Placebo [8]: 0.54
- Change from Baseline in Stool Consistency, LS Mean (SE) [8]: 1.41 (0.071)
- Change from Baseline in Stool Consistency, Difference from Placebo (Week 4, ITT Population): 0.52
- Change from Baseline in Stool Consistency, LS Mean (SE) (Week 4, ITT Population): 1.42 (0.074)
- Change from Baseline in Stool Consistency, Mean (SD) (Week 4, ITT Population): 1.42 (1.603)
- Change from Baseline in Stool Consistency, Difference from Placebo [9]: 0.53
- Change from Baseline in Stool Consistency, LS Mean (SE) [9]: 1.44 (0.074)
- Change from Baseline in Stool Consistency, Mean (SD) [9]: 1.42 (1.608)
- Change from Baseline in Stool Consistency, Difference from Placebo [10]: 0.67
- Change from Baseline in Stool Consistency, LS Mean (SE) [10]: 1.52 (0.072)
- Change from Baseline in Stool Consistency, Difference from Placebo (Week 5, ITT Population): 0.68
- Change from Baseline in Stool Consistency, LS Mean (SE) (Week 5, ITT Population): 1.55 (0.074)
- Change from Baseline in Stool Consistency, Mean (SD) (Week 5, ITT Population): 1.57 (1.594)
- Change from Baseline in Stool Consistency, Difference from Placebo [11]: 0.69
- Change from Baseline in Stool Consistency, LS Mean (SE) [11]: 1.58 (0.075)
- Change from Baseline in Stool Consistency, Mean (SD) [11]: 1.58 (1.598)
- Change from Baseline in Stool Consistency, Difference from Placebo [12]: 0.70
- Change from Baseline in Stool Consistency, LS Mean (SE) [12]: 1.51 (0.072)
- Change from Baseline in Stool Consistency, Difference from Placebo (Week 6, ITT Population): 0.72
- Change from Baseline in Stool Consistency, LS Mean (SE) (Week 6, ITT Population): 1.55 (0.074)
- Change from Baseline in Stool Consistency, Mean (SD) (Week 6, ITT Population): 1.57 (1.517)
- Change from Baseline in Stool Consistency, Difference from Placebo [13]: 0.74
- Change from Baseline in Stool Consistency, LS Mean (SE) [13]: 1.57 (0.075)
- Change from Baseline in Stool Consistency, Mean (SD) [13]: 1.58 (1.520)
- Change from Baseline in Stool Consistency, Difference from Placebo [14]: 0.64
- Change from Baseline in Stool Consistency, LS Mean (SE) [14]: 1.50 (0.072)
- Change from Baseline in Stool Consistency, Difference from Placebo (Week 7, ITT Population): 0.64
- Change from Baseline in Stool Consistency, LS Mean (SE) (Week 7, ITT Population): 1.54 (0.074)
- Change from Baseline in Stool Consistency, Mean (SD) (Week 7, ITT Population): 1.56 (1.540)
- Change from Baseline in Stool Consistency, Difference from Placebo [15]: 0.67
- Change from Baseline in Stool Consistency, LS Mean (SE) [15]: 1.56 (0.075)
- Change from Baseline in Stool Consistency, Mean (SD) [15]: 1.57 (1.544)
- Change from Baseline in Stool Consistency, Difference from Placebo [16]: 0.57
- Change from Baseline in Stool Consistency, LS Mean (SE) [16]: 1.48 (0.072)
- Change from Baseline in Stool Consistency, Difference from Placebo (Week 8, ITT Population): 0.58
- Change from Baseline in Stool Consistency, LS Mean (SE) (Week 8, ITT Population): 1.51 (0.074)
- Change from Baseline in Stool Consistency, Mean (SD) (Week 8, ITT Population): 1.53 (1.539)
- Change from Baseline in Stool Consistency, Difference from Placebo [17]: 0.60
- Change from Baseline in Stool Consistency, LS Mean (SE) [17]: 1.53 (0.075)
- Change from Baseline in Stool Consistency, Mean (SD) [17]: 1.54 (1.543)
- Change from Baseline in Stool Consistency, Difference from Placebo (Week 9, All Randomized (includes Duplicate Patients)): 0.67
